Patent publication US12090189B2, “Polypeptide inhibitor of de novo lipogenesis in cancer cells” (University of Florida Research Foundation, Inc., priority 2018, dated 2024)
Ends that are not written are not given here.

Legend:
[1] = tested on: protein levels of ACC1, FAS and ACSS2; assay: Immunoblotting of MDA-MB-231-derived cells treated with mTOR inhibitor; format: cell-based, human; conditions: serum-starved 24 h, 0.1 μM for 5 h; for protein levels of ACC1, FAS and ACSS2: control or S671A-expressing cells
Source text: FIGS. 6A to 6H show mutation of DAXX phosphorylation sites disrupts DAXX-SREBP2 interaction, impairs lipogenesis and tumor growth. […] The GFP-wt DAXX was transfected alone in the absence of FLAG-SREBP2 as a control (lane 7). The lysates of transfected cells were subjected to IP with an anti-FLAG antibody. Both DAXX and FLAG-SREBP2 were detected in immunoprecipitates and input lysates. […] The precipitated DNAs were subjected to qPCR with primers specific to promoter regions of the indicated genes. qPCRs for the 3′ UTR of the FASN and ACACA genes serve as negative control. […] ATRX qRT-PCR serves as a control for genes not regulated by SREBPs. […] Cells were serum-starved for 24 h. DMSO or a mTOR inhibitor (0.1 μM final concentration) was added for 5 h before cell lysis. […] RNAs were isolated from cells cultured in serum-free DMEM for 24 h as in FIG. 6D.
For immunoblotting analyses of cell lysates of monolayer cultures, medium was removed from culture plates and 1× Passive Lysis buffer (Promega) was added. The plates were frozen at −80° C. overnight and then thawed at room temperature. The lysates were transferred to a centrifuge tube. To prepare tumor lysates, xenograft tumor tissues were fragmented in the presence of liquid nitrogen, approximately 50 mg of tumor fragment was homogenized in 1 mL of 1× RIPA lysis buffer on ice using a micro-homogenizer. After brief sonication at a low power output for 5 sec on ice, the lysates were cleared by centrifugation at 13,000 rpm for 15 min at 4° C. Protein contents were quantified using a Qubit protein assay kit. Protein extracts from cell culture or tumor lysates were subjected to SDS-PAGE and electro-blotting as above.

[2] = tested on: MDA-MB-231 and MDA-MB-468 cells; assay: Cell internalization of TAMRA-SIM2 by microscopy; format: cell-based, human; conditions: TAMRA-SIM2 1 μM, 1 hour
Protocol: FIGS. 18A to 18I show SIM2 peptide blocks lipogenesis. […] MDA-MB-231 and MDA-MB-468 cells were exposed to TAMRA-SIM2 (1 μM) for 1 hour and visualized by microscopy. […] Fluorescence polarization assay was performed in the presence of TAMRA-SIM2 and increased concentrations of SUMO1. FIGS. 18C-18H show SIM2 blocks de novo lipogenesis in MDA-MB-231 control or DAXX OE (FIG. 18C), MDA-MB-468 (FIG. 18D), Hs578T (FIG. 18E), HCT116 (FIG. 18F), 4T1 (FIG. 18G), and CT26.CL25 (FIG. 18H). Serum-starved cells were not treated (control) or exposed to SIM2 (10 μM) and labeled with [^14C] acetate. The levels of labeled lipids were quantified. […] MDA-MB-231 control and DAXX OE cell lines were untreated (control) or treated with SIM2 (10 μM). At 24 h after treatment, RNA was isolated and subject to qRT-PCR. RNA levels were normalized against that of ACTB. The p values shown are based on t-test.

[3] = Tolerability in tumor-bearing mice (body weights); format: in vivo; conditions: 25 mg/kg i.p. daily weekdays
Protocol: FIGS. 7A to 7E show the DAXX SIM2 peptide disrupts DAXX-SREBP interaction and suppresses tumor growth in vivo. […] The immunoprecipitates, input and supernatants were analyzed by immunoblotting. […] Mice were dosed i.p. daily weekdays for three weeks with vehicle or SIM2 (25 mg/kg). Longitudinal tumor volumes, mouse body weights, and endpoint tumor weights and images are shown. […] Protein extracts from three representative MDA-MB-231 xenograft tumors in vehicle and SIM2-treated mice were subjected to immunoblotting. HSP60 was detected as a loading control. […] Mice were dosed as in FIG. 7B. Longitudinal tumor volumes, mouse body weights, and endpoint tumor weights and tumor images are shown. […] Shown are a plot of a principal component analysis of lipid molecules detected by LC/MS, a heatmap of top lipid species, and bar graphs of relative abundance of the indicated lipid molecules. […] The p values were calculated based on Student's t-test. *: p<0.05; **: […].
For the in vivo SIM2 treatment study, MDA-MB-231 xenograft tumors were established as above and the mouse mammary tumor cell line 4T1 syngeneic tumors were established by transplanting one million cells in 100 μl of DMEM into mammary fat pads of female BALB/c mice. […] During the treatment, tumor dimensions and mouse body weights were recorded once weekly. […]

Compound | protein levels of ACC1, FAS and ACSS2 [1] | levels of ACC1 and FAS ([1]; cells expressing the S495A mutant) | internalization into cells [2] | tolerability in vivo [3]
COc1ccc(-c2ccc3c(N4CCOC[C@@H]4C)nc(N4CCOC[C@@H]4C)nc3n2)cc1CO [AZD8055] | Neither of these inhibitors had obvious effects |  |  | 
CO[C@H]1C[C@@H]2CC[C@@H](C)[C@@](O)(O2)C(=O)C(=O)N2CCCC[C@H]2C(=O)O[C@H]([C@H](C)C[C@@H]2CC[C@@H](OC(=O)C(C)(CO)CO)[C@H](OC)C2)CC(=O)[C@H](C)/C=C(\C)[C@@H](O)[C@@H](OC)C(=O)[C@H](C)C[C@H](C)/C=C/C=C/C=C/1C [temsirolimus] | Neither of these inhibitors had obvious effects | reduced levels of both ACC1 and FAS |  | 
DPEEIIVLSDSD [SIM2, DPEEIIVLSDSD] |  |  | spontaneously and rapidly internalized into cells | highly tolerated in vivo
